The record followed here is ChEMBL document CHEMBL3351756, “Synthesis and evaluation of the antiplasmodial activity of novel indeno[2,1-c]quinoline derivatives” (Bioorg Med Chem, 2014).

Values after ≈ are worked out from the molar mass of the structure shown. A value given as a limit tells only on which side of the number the result lay.

Data set [1] has as its system Plasmodium falciparum. The data set can be described thus: Antimalarial activity against chloroquine-sensitive Plasmodium falciparum 3D7 infected in human type A-positive red blood cells assessed as growth inhibition after 72 hrs by spectrophotometrically. As to conditions: 3D7, 72 h. It is filed as functional, organism-based.
The subject of data set [2] is Plasmodium falciparum. Description: Antimalarial activity against Plasmodium falciparum Dd2. Format: functional.
Data set [3] has as its system Plasmodium falciparum. Description: Antimalarial activity against chloroquine-sensitive Plasmodium falciparum D10 infected in human type A-positive red blood cells assessed as growth inhibition after 72 hrs by spectrophotometrically. Format: functional. Conditions: D10, 72 h.
Data set [4] deals with Plasmodium falciparum. The data set can be described thus: Antimalarial activity against chloroquine-resistant Plasmodium falciparum W2 infected in human type A-positive red blood cells assessed as growth inhibition after 72 hrs by spectrophotometrically. It is filed as functional, organism-based. Conditions: W2, 72 h.
Data set [5] is described as follows: Resistance index, ratio of IC50 for chloroquine-resistant Plasmodium falciparum W2 to IC50 for chloroquine-sensitive Plasmodium falciparum D10. It is filed as functional.
Data set [6] can be described thus: Cytotoxicity against HMEC1 assessed as cell growth inhibition after 72 hrs by MTT assay. Details: species or system HMEC-1. As to conditions: human, HMEC1 cells.
Data set [7] can be described thus: Selectivity index, ratio of CC50 for HMEC1 to IC50 for chloroquine-sensitive Plasmodium falciparum D10. It is filed as functional.
Data set [8] in a line: Selectivity index, ratio of CC50 for HMEC1 to IC50 for chloroquine-resistant Plasmodium falciparum W2. It is filed as functional.
Data set [9] is described as follows: Resistance index, ratio of IC50 for chloroquine-resistant Plasmodium falciparum W2 to IC50 for chloroquine-sensitive Plasmodium falciparum 3D7. Format: functional.
Data set [10] in a line: Selectivity index, ratio of CC50 for HMEC1 to IC50 for chloroquine-sensitive Plasmodium falciparum 3D7. It is filed as functional.
Data set [11] relates to Mycobacterium tuberculosis. The data set can be described thus: Antimycobacterial activity against Mycobacterium tuberculosis. It is filed as functional.
The next data set deals with Heme. Description: Binding affinity to heme assessed as inhibition of beta-hematin formation measured as compound IC50 to haemin molar ratio by BHIA assay.
Data set [12] has as its system Plasmodium falciparum. The data set can be described thus: Antimalarial activity against Plasmodium falciparum K1. Format: functional, organism-based.

Turning to `O=C(c1ccc2[nH]ccc2c1)N1CCN(C2c3ccccc3-c3ccccc32)CC1`, the IC50 amounted to 16900 nM in the data set on Plasmodium falciparum [1] and 21600 nM in the data set with Plasmodium falciparum [2].

What is called CC50 is the concentration giving 50% cytotoxicity. Take `CN1CCN(CCNc2nc3cc(Cl)ccc3c3c2/C(=N/O)c2ccccc2-3)CC1`: the IC50 in the data set on Plasmodium falciparum [3] amounted to 676 nM; in the data set with Plasmodium falciparum [4], 1060 nM. The Ratio IC50 in data set [5] came to 1.6. For the same compound, the CC50 at 72 h in [6] was 2940 nM. Further, the Ratio CC50/IC50 is 4.4 in data set [7] and 2.8 in data set [8].

Consider `CCCCN(CCCC)CC(O)c1cc(Cl)cc2c1-c1ccc(Cl)cc1/C2=C/c1ccc(Cl)cc1` (centres undefined) [LUMEFANTRINE], for which the IC50 with Plasmodium falciparum [3], with Plasmodium falciparum [1] and in the data set on Plasmodium falciparum [4] was 12 nM each time.

Turning to `CCN(CC)CCCC(C)Nc1ccnc2cc(Cl)ccc12` (centres undefined) [CHLOROQUINE], the CC50 at 72 h in data set [6] was > 38000 nM.

For the compound `CN1CCN(CCNc2nc3cc(Cl)ccc3c3c2C(=O)c2ccccc2-3)CC1`, the IC50 was 468 nM with Plasmodium falciparum [3] and 534 nM in the data set with Plasmodium falciparum [4]. For the same compound, the Ratio IC50 in data set [5] is 1.1. The CC50 at 72 h in data set [6] came out at 3120 nM. The Ratio CC50/IC50 in [7] was determined as 6.7; in [8] it was 5.9.

For `CN1CCN(CCNc2nc3ccc(Cl)cc3c3c2C(=O)c2ccccc2-3)CC1`, the IC50 turned out to be 703 nM in the data set on Plasmodium falciparum [3], 1030 nM in the data set on Plasmodium falciparum [1] and 568 nM in the data set with Plasmodium falciparum [4]. The values for the Ratio IC50 in data set [5] and in data set [9] were 0.8 and 0.5, respectively. Besides, the CC50 at 72 h in data set [6] was 1940 nM. In addition, the values for the Ratio CC50/IC50 in data set [7], in [10] and in data set [8] were 2.8, 1.9 and 3.4, respectively.

Regarding `COc1nc2ccc(Cl)cc2c2c1/C(=N/NC(=N)N)c1ccccc1-2`, the results for the IC50 in the data set on Plasmodium falciparum [3] and with Plasmodium falciparum [4] were 360 nM and 432 nM, respectively. The Ratio IC50 in data set [5] amounted to 1.2. In [6], the CC50 at 72 h amounted to 1720 nM. For the same compound, the Ratio CC50/IC50 is 4.8 in data set [7] and 4 in data set [8].

By MIC is commonly meant the smallest concentration in the dilution series that meets the test's criterion for growth inhibition. A higher MIC goes with a less susceptible organism. In data set [11], `Clc1cccc(/C(=C\[C@@H]2CCCN3CCCC[C@H]23)c2ccccc2)c1` yielded an MIC of 0.85 µM (≈ 0.299 µg/mL).

Regarding `C(=C1c2ccccc2-c2ccccc21)[C@@H]1CCCN2CCCC[C@H]12`, in data set [11], the MIC was found to be 0.49 µM (≈ 0.155 µg/mL).

In turn, `Clc1ccc(C(=C[C@@H]2CCCN3CCCC[C@H]23)c2ccc(Cl)cc2)cc1` came in with an MIC in data set [11] of 1.6 µM (≈ 0.618 µg/mL).

In the case of `O/N=C1\c2ccccc2-c2c1c(-n1ccnc1)nc1ccc(Cl)cc21`, the IC50 with Plasmodium falciparum [3] and in the data set on Plasmodium falciparum [4] was > 5000 nM throughout.

`O=C1c2ccccc2-c2c1c(N1CCN(c3ccccn3)CC1)nc1ccc(Cl)cc21`: the IC50 was found to be 6080 nM in the data set with Plasmodium falciparum [3] and 6940 nM with Plasmodium falciparum [4]. Further, the Ratio IC50 in data set [5] amounted to 1.1.

For the compound `O=C1c2ccccc2-c2c1c(NCCN1CCOCC1)nc1cc(Cl)ccc21`, the IC50 in the data set on Plasmodium falciparum [3] stood at 3760 nM; in the data set on Plasmodium falciparum [1], 6780 nM; in the data set with Plasmodium falciparum [4] it was 2550 nM. Also, the Ratio IC50 came to 0.7 in [5] and 0.4 in [9].

For `COc1nc2ccc(Cl)cc2c2c1/C(=N/N1CCN(C)CC1)c1ccccc1-2`, the IC50 in the data set on Plasmodium falciparum [3] was 4580 nM; in the data set on Plasmodium falciparum [4] it was 3160 nM. Also, the Ratio IC50 in data set [5] is 0.7. The CC50 at 72 h in data set [6] stood at 5280 nM. Further, the results for the Ratio CC50/IC50 in data set [7] and in data set [8] were 1.2 and 1.7, respectively.

In data set [11], `C(=C(c1ccccc1)c1ccccc1)[C@@H]1CCCN2CCCC[C@H]12` yielded an MIC of 3.9 µM (≈ 1.24 µg/mL).

`O=C1c2ccccc2-c2c1c(NCCN1CCCCC1)nc1ccc(Cl)cc21`: the values for the IC50 in the data set with Plasmodium falciparum [1] and with Plasmodium falciparum [4] were 1710 nM and 626 nM, respectively. The Ratio IC50 in data set [9] is 0.4.

On to `CCC(=O)O/N=C1\c2ccccc2-c2c1c(N1CCN(c3ccccn3)CC1)nc1ccc(Cl)cc21`, for which the IC50 with Plasmodium falciparum [3] amounted to 4050 nM; in the data set on Plasmodium falciparum [4], 4160 nM. Moreover, the Ratio IC50 in data set [5] amounted to 1. The cytotoxic concentration (CC50) at 72 h in data set [6] was > 35000 nM. The Ratio CC50/IC50 in data set [7] is > 8.7; in data set [8], > 8.4.

The compound `c1ccc2c(c1)-c1ccccc1C2C[C@@H]1CCCN2CCCC[C@H]12` had an MIC in [11] of 20 µM (≈ 6.35 µg/mL).

For the compound `O/N=C1\c2ccccc2-c2c1c(NCCN1CCCCC1)nc1cc(Cl)ccc21`, the IC50 is 530 nM in the data set on Plasmodium falciparum [1] and 244 nM with Plasmodium falciparum [4]. The Ratio IC50 in [9] is 0.5. Also, in data set [6], the CC50 at 72 h came to 2340 nM. Also, the Ratio CC50/IC50 in [10] stood at 4.4; in data set [8] it was 9.6.

As to `O/N=C1\c2ccccc2-c2c1c(N1CCN(c3ccccn3)CC1)nc1ccc(Cl)cc21`, the IC50 came out at 6610 nM with Plasmodium falciparum [3] and 6810 nM in the data set with Plasmodium falciparum [4]. For the same compound, in data set [5], the Ratio IC50 was found to be 1. The CC50 at 72 h in data set [6] is > 38000 nM. The Ratio CC50/IC50 is > 5.8 in data set [7] and > 5.6 in data set [8].

Regarding `CN1CCN(CCNc2nc3ccc(Cl)cc3c3c2/C(=N/O)c2ccccc2-3)CC1`, the IC50 in the data set on Plasmodium falciparum [3] is 667 nM; in the data set on Plasmodium falciparum [1], 818 nM; in the data set on Plasmodium falciparum [4], 699 nM. The Ratio IC50 in data set [5] stood at 1; in data set [9] it was 0.8. Also, the CC50 at 72 h in [6] came out at 2580 nM. The Ratio CC50/IC50 in [7] was found to be 3.9; in data set [10], 3.2; in data set [8] it was 3.7.

On to `CN1CCN(c2nc3ccc(Cl)cc3c3c2C(=O)c2ccccc2-3)CC1`, for which the IC50 in the data set on Plasmodium falciparum [3] was 1640 nM; in the data set on Plasmodium falciparum [4], 1190 nM. The Ratio IC50 in [5] came to 0.7. Moreover, the CC50 at 72 h in [6] turned out to be 4030 nM. The Ratio CC50/IC50 in data set [7] was found to be 2.5; in data set [8], 3.4.

`O=C1c2ccccc2-c2c1c(NCCN1CCCCC1)nc1cc(Cl)ccc21`: the results for the IC50 in the data set with Plasmodium falciparum [1] and with Plasmodium falciparum [4] were 2340 nM and 1170 nM, respectively. Also, the Ratio IC50 in data set [9] was 0.5.

As for `O/N=C1\c2ccccc2-c2c1c(NCCN1CCOCC1)nc1cc(Cl)ccc21`, the IC50 in the data set with Plasmodium falciparum [3] worked out at 2840 nM; in the data set on Plasmodium falciparum [1], 5390 nM; with Plasmodium falciparum [4] it was 2730 nM. The Ratio IC50 was determined as 1 in [5] and 0.5 in [9].

Turning to `O/N=C1\c2ccccc2-c2c1c(NCCN1CCCCC1)nc1ccc(Cl)cc21`, the IC50 is 850 nM in the data set with Plasmodium falciparum [3], 843 nM with Plasmodium falciparum [1], 255 nM with Plasmodium falciparum [4] and > 4 molar ratio at Heme. The Ratio IC50 in data set [5] and in data set [9] was 0.3 throughout. Besides, in data set [6], the CC50 at 72 h came out at 3120 nM. For the same compound, the results for the Ratio CC50/IC50 in [7], in data set [10] and in data set [8] were 3.7, 3.7 and 12, respectively.

In the data set on Plasmodium falciparum [12], `Clc1ccc(/C(=C\[C@@H]2CCCN3CCCC[C@H]23)c2ccccc2)cc1Cl` displayed an IC50 of 400 nM.
